The text below walks through data of patent US10183039B2, “Methods for the production of collagen IV” (Vanderbilt University, priority 2013, dated 2019).

For the experiment, the system named is collagen IV. The following applies: in vivo.

Protocol: Data plotted as the group median±interquartile range. N=30 for each group. […] (FIG. 17F) Western blot of isolated NC1 domain from larvae treated as in (E), probed with an anti-Drosophila NC1 polyclonal antibody (Extended Experimental Methods). Associated larval Br-content was measured by EINAA. Bonds/hexamer were calculated from the Western blot.
In Br-free^DEP conditions, the inventors assessed the impact of Br-deficiency on crosslink formation in vivo. The inventors used vkg^454-GFP flies in which the single collagen IV α2 gene locus contains a GFP insertion near the 7S domain. vkg^454-GFP flies were grown on Br-free^DEP, Br-added^DEP and standard diets and biochemically assayed sulfilamine-bond content via immunoblot.

`Br` [bromide]: the “sulfilimine-bond content in larvae” value is “rescued”.
